# Data taken from US20060193853A1, “Combinations of growth-and hormone-regulating factors for the treatment of neoplasia” (priority 2002, published 2006).
# Test system: tumor cell line Dunning R3327-G
# Assay: Tumor reduction in Copenhagen rats implanted with tumor cell line Dunning R3327-G (tumor weight at sacrifice)
# Type: in vivo
# Details: three months following the tumor line implant
# Experimental: Tumor cell line Dunning R3327-G was implanted into 9-12 weeks old Copenhagen rats (with approximately 100 g of body weight each), which were subjected to different treatments with 2×10^6 cell density per animal in implant medium (RPMI 1640, serum-free in 0.5 ml), on the laxed area of the flanks. One hundred percent attachment efficiency was accomplished in the animals after 90 days.
# Eight groups of ten animals each one were formed for the experiment, with Copenhagen rats as described before. […]
# DES treatment was made on and off, three times a week at a rate of 1 mg/kg/day, as long as the experiment lasted; and it started once the cells were inoculated. […] (1) The expected effect (Etheoretical) in the case of double combination formulations can be calculated in case either effect is not mutually excluding (Caridad W., Guerra Bustillo, Ernesto Menendez Acuna, Rolando Barrera Morena, Esteban Egana Morales. “Estadistica”, Editorial Pueblo y Educacion, 1989), according to: Etheoretical=ET1+ET2−(ET1*ET2). […]
compound,measurement,setting,value
"CC/C(=C(/CC)c1ccc(O)cc1)c1ccc(O)cc1 [DES, dietilestilbestrol]",Treatment effect. Etreatment=1-(Ptreatment/Pplacebo),relative to placebo mean tumor weight,0.597
same,Tumor weight (g) (Mean of ten animals),tumor dried and weighed,12.66 g
